Data reported in patent US20040259079A1, “Substantially complete ribozyme libraries” (priority 1998, published 2004).
Like-named read-outs stand apart in the source and are kept apart here.

Assays:
Type in all cases: cell-based
HIV = HIV challenge of stable Molt4/8 cell lines, P24 production (SAVA); conditions: for % inhibition of HIV replication: Table 19, U5 ribozyme from RNA polymerase III promoters, P24 at 7 days, vs ALNL-6 control
Description: Promoter efficacy was measured by using them to express a ribozyme against the US region of HIV and measuring the resulting anti-HIV effect for each promoter. […] The HIV protease inhibitor, indinavir, was included in these experiments as a positive control at 10 and 100 nM concentrations.

[1] = tested on: 2008 cell line (ovarian cell line sensitive to cisplatin); assay: Cisplatin selection of vector or library transfected cells, surviving colonies
Description: Approximately 2×10^7 of the 2008 cell line (ovarian cell line sensitive to cisplatin) and UMscc10b were transfected by 200 μg of pAAV6Clib described in Example 2(A) using lipofectamine. The transfection efficiencies were from 27% to 35% by eGFP expression.
After transfection, about 5.4×10^6 to 7×10^6 of cells (1.5 to 1.9 of library equivalent ) containing library DNA were selected by multiple rounds of addition of cisplatin at increasing concentrations. […] Colonies derived from the library transfected cells growing out of high concentration of cisplatin were expanded.
To confirm the library transfected cells after selection are indeed more resistant to cisplatin than either the vector transfected or parental 2008 cells, we compared the killing curve of the cisplatin of there three cell population. […] Ribozyme sequences were rescued from the library transfected cells which were selected at high concentration were rescued by PCR by the method described in Example D and identified by sequencing. After confirming the function of ribozymes rescued from the resistant cells, we will identify genes controlling cisplatin sensitivity again based on the sequence of the ribozyme binding arms and GUC by the methods described in the next example.

A549 and HeLa cells = assay: Puromycin selection of transiently transfected cells; conditions: cells receiving puromycin resistance genes (pPur); 600ng/ml puromycin
Description: Drug selection is typically used to obtain cells which stably express the drug resistance gene; however, we have found conditions under which cells transfected with puromycin-expressing vectors can survive for several days in the presence of puromycin, even when not stably transfected or transduced. During the same time period, untransfected cells are rapidly killed by the drug. Plasmids encoding puromycin resistance genes (pPur) were transfected into A549 and HeLa cells, and 600ng/ml puromycin was added to the culture medium. As a control, cells were transfected with plasmids lacking puromycin resistance genes (AMFT). The number of cells was determined at 1-day intervals following transfection. Cells lacking the puromycin resistance gene were killed within 2 or 3 days after the addition of puromycin, whereas cells receiving puromycin resistance genes survived as long as 7-9 days (FIG. 27). Target validation could therefore be performed on these transiently transfected cells between 2-9 days following puromycin selection. Other drugs which rapidly kill cells can also be employed in this type of experiment.

[2] = tested on: 5′TK cells (HeLa with HCV IRES-tk reporter); assay: Gancyclovir sensitivity of 5′TK reporter cells, surviving colonies; set-up: key to number of surviving cell colonies: TMTC = too many colonies to count
Excerpt: For gene identification, this reporter is stably transfected into HeLa cells (where HCV IRES activity has already been documented using hygromycin selection (FIG. 23). This “parental” cell population is called 5′TK.
Expression of the tk gene in these cells via the IRES confers sensitivity to the toxic effects of gancyclovir. Introduction of a ribozyme that inhibits expression of a cellular factor involved in IRES translation would result in a loss of tk expression and this cell would become gancyclovir resistant (see FIG. 23). As a control, a similar reporter plasmid was constructed without the IRES (or with a non-functioning mutant IRES), to verify that tk expression is IRES-dependent. To facilitate selection of the correct ribozyme from the library, it was necessary to start with a concentration of gancyclovir that effectively kills all parental cells, thus assuring a low background of false positives. To this end, 7.5×10^5 5′TK cells were exposed to various concentrations of gancyclovir and the number of surviving cell colonies is shown below. Due to anticipated heterogeneity in the original parental population, individual cell clones of the parental were also isolated and gancyclovir sensitivity was assayed as shown below in Table 12.

melanoma cell line G-361 = assay: TRAIL killing of G-361 cells; conditions: 200 ng/ml TRAIL; 2 days after adding; most efficient condition
Description: Selection of ribozymes (from the Rz library) capable of blocking TRAIL-induced apoptosis was investigated in the melanoma cell line G-361 (ATCC #CRL-1424). To determine their initial sensitivity to TRAIL, G-361 cells were plated at a density of 1×10^4 cells/cm^2. Recombinant TRAIL (Alexis Biochemicals) was applied at concentrations between 10 and 200 ng/ml for anywhere from 16 hours to 2 days.

## CC(C)(C)NC(=O)[C@@H]1CN(Cc2cccnc2)CCN1C[C@@H](O)C[C@@H](Cc1ccccc1)C(=O)N[C@H]1c2ccccc2C[C@H]1O [indinavir]
HIV; Human immunodeficiency virus 1, MOLT-4, Table 19, positive control at 10 nM, MOI 0.02, read-out: % inhibition of HIV replication
  inhibition at 0.01 µM: 94.7 ± 2.8%
HIV; Human immunodeficiency virus 1, MOLT-4, Table 19, positive control at 10 nM, MOI 0.04, read-out: % inhibition of HIV replication
  inhibition at 0.01 µM: 85.7 ± 4%
HIV; Human immunodeficiency virus 1, MOLT-4, Table 19, positive control at 10 nM, MOI 0.08, read-out: % inhibition of HIV replication
  inhibition at 0.01 µM: 61.6 ± 9.5%
HIV; Human immunodeficiency virus 1, MOLT-4, Table 19, positive control at 100 nM, MOI 0.02, read-out: % inhibition of HIV replication
  inhibition at 0.1 µM: 97.8 ± 1.7%
HIV; Human immunodeficiency virus 1, MOLT-4, Table 19, positive control at 100 nM, MOI 0.04, read-out: % inhibition of HIV replication
  inhibition at 0.1 µM: 95.9 ± 0.2%
HIV; Human immunodeficiency virus 1, MOLT-4, Table 19, positive control at 100 nM, MOI 0.08, read-out: % inhibition of HIV replication
  inhibition at 0.1 µM: 89.5 ± 1.2%
HIV; Human immunodeficiency virus 1, MOLT-4, Table 20, positive control at 10 nM, MOI 0.02, read-out: % inhibition (anti-HIV effect)
  inhibition at 0.01 µM: 81.3 ± 1.2%
HIV; Human immunodeficiency virus 1, MOLT-4, Table 20, positive control at 10 nM, MOI 0.04, read-out: % inhibition (anti-HIV effect)
  inhibition at 0.01 µM: 70.9 ± 2.1%
HIV; Human immunodeficiency virus 1, MOLT-4, Table 20, positive control at 10 nM, MOI 0.08, read-out: % inhibition (anti-HIV effect)
  inhibition at 0.01 µM: 57.8 ± 4.8%
HIV; Human immunodeficiency virus 1, MOLT-4, Table 20, positive control at 100 nM, MOI 0.02, read-out: % inhibition (anti-HIV effect)
  inhibition at 0.1 µM: 89.1 ± 0.5%
HIV; Human immunodeficiency virus 1, MOLT-4, Table 20, positive control at 100 nM, MOI 0.04, read-out: % inhibition (anti-HIV effect)
  inhibition at 0.1 µM: 86.1 ± 1.9%
HIV; Human immunodeficiency virus 1, MOLT-4, Table 20, positive control at 100 nM, MOI 0.08, read-out: % inhibition (anti-HIV effect)
  inhibition at 0.1 µM: 82 ± 1.2%
HIV; Human immunodeficiency virus 1, MOLT-4, Table 22, 10 nM, MOI 0.02, read-out: % inhibition
  inhibition at 0.01 µM: 74.8 ± 1.5%
HIV; Human immunodeficiency virus 1, MOLT-4, Table 22, 10 nM, MOI 0.04, read-out: % inhibition
  inhibition at 0.01 µM: 73.9 ± 3.6%
HIV; Human immunodeficiency virus 1, MOLT-4, Table 22, 10 nM, MOI 0.08, read-out: % inhibition
  inhibition at 0.01 µM: 68.8 ± 4.5%
HIV; Human immunodeficiency virus 1, MOLT-4, Table 22, 100 nM, MOI 0.02, read-out: % inhibition
  inhibition at 0.1 µM: 98.5 ± 0.5%
HIV; Human immunodeficiency virus 1, MOLT-4, Table 22, 100 nM, MOI 0.04, read-out: % inhibition
  inhibition at 0.1 µM: 95.5 ± 0.6%
HIV; Human immunodeficiency virus 1, MOLT-4, Table 22, 100 nM, MOI 0.08, read-out: % inhibition
  inhibition at 0.1 µM: 93.3 ± 0.4%

## N.N.[Cl][Pt][Cl] [cisplatin]
[1]; Library transfected cells (pAAV6Clib), cisplatin 4 uM, after multiple rounds of selection
  % of surviving colonies: 18.4%
[1]; Library transfected cells, cisplatin 5 uM
  % of surviving colonies: 10.3%
[1]; Library transfected cells, cisplatin 6 uM
  % of surviving colonies: 5.2%
[1]; Library transfected cells, cisplatin 7 uM
  % of surviving colonies: 2.3%
[1]; Library transfected cells, cisplatin 8 uM
  % of surviving colonies: 0%
[1]; vector transfected cells, cisplatin 4 uM, after multiple rounds of selection
  % of surviving colonies: 2.14%
[1]; vector transfected cells, cisplatin 5 uM
  % of surviving colonies: 0.97%
[1]; vector transfected cells, cisplatin 6 uM
  % of surviving colonies: 0.79%
[1]; vector transfected cells, cisplatin 7 uM
  % of surviving colonies: 0%
[1]; vector transfected cells, cisplatin 8 uM
  % of surviving colonies: 0%

## COc1ccc(C[C@H](N)C(=O)N[C@H]2[C@@H](O)[C@H](n3cnc4c(N(C)C)ncnc43)O[C@@H]2CO)cc1 [puromycin]
A549 and HeLa cells
  survival time in the presence of puromycin: 7 to 9 days

## Serine
HIV; MOI 0.02
  % inhibition of HIV replication: 96.6%
HIV; MOI 0.04
  % inhibition of HIV replication: 91.8%
HIV; MOI 0.08
  % inhibition of HIV replication: 82.0%

## Alanine
HIV; MOI 0.02
  % inhibition of HIV replication: 75.7 ± 21%
HIV; MOI 0.04
  % inhibition of HIV replication: 71.0 ± 23%
HIV; MOI 0.08
  % inhibition of HIV replication: 8.7 ± 24%

## Nc1nc(O)c2ncn(COC(CO)CO)c2n1 [Gancyclovir, gancyclovir]
[2]; Clone 1, gancyclovir 20 μM
  number of surviving cell colonies: 20
[2]; Clone 1, gancyclovir 40 μM
  number of surviving cell colonies: 4
[2]; Clone 1, gancyclovir 80 μM
  number of surviving cell colonies: 0
[2]; Clone 2, gancyclovir 20 μM
  number of surviving cell colonies: 0
[2]; Clone 2, gancyclovir 40 μM
  number of surviving cell colonies: 0
[2]; Clone 2, gancyclovir 80 μM
  number of surviving cell colonies: 0
[2]; Clone 3, gancyclovir 20 μM
  number of surviving cell colonies: 0
[2]; Clone 3, gancyclovir 40 μM
  number of surviving cell colonies: 0
[2]; Clone 3, gancyclovir 80 μM
  number of surviving cell colonies: 0
[2]; Clone 4, gancyclovir 20 μM
  number of surviving cell colonies: TMTC
[2]; Clone 4, gancyclovir 40 μM
  number of surviving cell colonies: TMTC
[2]; Clone 4, gancyclovir 80 μM
  number of surviving cell colonies: 60
[2]; Clone 5, gancyclovir 20 μM
  number of surviving cell colonies: 0
[2]; Clone 5, gancyclovir 40 μM
  number of surviving cell colonies: 0
[2]; Clone 5, gancyclovir 80 μM
  number of surviving cell colonies: 0
[2]; Parental 5′TK, gancyclovir 4 μM, 7.5×10^5 cells exposed
  number of surviving cell colonies: 109
[2]; Parental 5′TK, gancyclovir 8 μM
  number of surviving cell colonies: 38
[2]; Parental 5′TK, gancyclovir 12 μM
  number of surviving cell colonies: 17
[2]; Parental 5′TK, gancyclovir 16 μM
  number of surviving cell colonies: 15
[2]; Parental 5′TK, gancyclovir 20 μM
  number of surviving cell colonies: 9
[2]; Parental 5′TK, gancyclovir 40 μM
  number of surviving cell colonies: 7
[2]; Parental 5′TK, gancyclovir 60 μM
  number of surviving cell colonies: 2
[2]; Parental 5′TK, gancyclovir 80 μM
  number of surviving cell colonies: 2
[2]; Parental 5′TK, gancyclovir 100 μM
  number of surviving cell colonies: 1
[2]; individual clones #2, 3 and 5, as low as 20 μM
  sensitivity to gancyclovir (in words): highly sensitive

B1: TRAIL: Recombinant TRAIL (Alexis Biochemicals), death receptor ligand (protein, UniProt P50591 1-281, looked up)
Tumor necrosis factor ligand …: MAMMEVQGGPSLGQTCVLIVIFTVLLQSLCVAVTYVYFTNELKQMQDKYSKSGIACFLKEDDSYWDPNDEESMNSPCWQVKWQLRQLVRKMILRTSEETISTVQEKQQNISPLVRERGPQRVAAHITGTRGRSNTLSSPNSKNEKALGRKINSWESSRSGHSFLSNLHLRNGELVIHEKGFYYIYSQTYFRFQEEIKENTKNDKQMVQYIYKYTSYPDPILLMKSARNSCWSKDAEYGLYSIYQGGIFELKENDRIFVSVTNEHLIDMDHEASFFGAFLVG
Melanoma cell line G-361
  killing of G-361 cells: < 100%
